Results as given in patent US9149536B2, “Conjugated antimicrobial agents” (priority 2009, dated 2015).
In brackets after ≈: the same amount, converted by molar mass. Where two headings read alike, the source gives them in different places.

Tests used:
B. subtilis ATCC 6633 [1] = assay: MIC, double-microdilution, B. subtilis ATCC 6633; assay type: cell-based; details: for MIC: Bacillus subtilis, ATCC6633
APH(3′)-IIIa enzyme = target: T1, APH(3′)-IIIa enzyme (Enterococcus faecalis, UniProt P0A3Y5); assay type: biochemical; details: compound as substrate of APH(3′)-IIIa
T1 construct: made in house; host or cells: E. coli BL21 carrying pETSACG1 (inferred)

[2] = tested on: bacterial protein synthesis; assay: In vitro coupled transcription/translation assay, E. coli S30 extract; assay type: biochemical; details: luciferase readout
Procedure: Protein translation inhibition by the different compounds was quantified in a coupled transcription/translation assay by using E. coli S30 extracts for circular DNA with the pBEST/uc plasmid (Promega), according to the manufacturer's protocol.
Translation reactions (25 μl) that contained variable concentrations of the tested compound were incubated at 37° C. for 60 minutes, cooled on ice for 5 minutes, and diluted with a dilution reagent (tris-phosphate buffer (25 mM, pH 7.8), DTT (2 mM), 1,2-diaminocyclohexanetetraacetate (2 mM), glycerol (10%), Triton X-100 (1%) and BSA (1 mg/ml)) into 96-well plates. The luminescence was measured immediately after the addition of the Luciferase Assay Reagent (50 μl; Promega), and the light emission was recorded with a Victor3™ Plate Reader (Perkin-Elmer). The concentration of half-maximal inhibition (IC50) was obtained from fitting concentration-response curves to the data of at least two independent experiments by using Grafit 5 software (Leatherbarrow, R. J. Erithacus Software Ltd: Horley, U.K., 2001).
(§1) Relaxation assays were conducted with E. coli TopoIV.

E. coli TopoIV = target: T2, E. coli TopoIV (Escherichia coli, UniProt P0AFI2+P20083); assay: TopoIV relaxation assay; assay type: biochemical
T2 construct: purchased Inspiralis Ltd
Procedure: DNA relaxation activity was assayed with supercoiled pBR322 DNA as a substrate (Inspiralis Ltd) according to the manufacturer's protocol. The standard reaction mixture (20 μl) contained 40 mM HEPES-KOH pH 7.6, 100 mM potassium glutamate, 10 mM Mg(OAc)2, 10 mM dithiothreitol, 1 mM ATP, 50 μg/ml albumin, 5 ng/μl […] pBR322, and TopoIV protein. The reaction mixture was incubated at 37° C. for 30 minutes, and then was terminated by addition of 2 μl 0.5 M EDTA, 3.5 μl loading dye and 20 μl chloroform/isoamyl alcohol (24:1) mixture. […] One unit of relaxation activity was defined as the amount of TopoIV required to relax 0.1 μg of plasmid in 30 minutes.
as §1

E. coli DNA gyrase = E. coli DNA gyrase (Escherichia coli, UniProt P0AES4+P0AES6)
E. coli AG100A = assay: MIC, double-microdilution, E. coli AG100A; assay type: cell-based, Escherichia coli; details: for MIC: Escherichia coli, AG100A
E. coli ATCC 25922 = assay: MIC, double-microdilution, E. coli ATCC 25922; assay type: cell-based, Escherichia coli; details: for MIC: Escherichia coli, ATCC25922
B. subtilis ATCC 6633 [3] = assay: microbe, parasite or virus in culture; assay type: cell-based; details: for MIC: Bacillus subtilis
Procedure: (§2) In parallel, MIC evolution during these subcultures was compared concomitantly with each new generation, using bacteria harvested from control wells (wells cultured without antimicrobial agent from the previous generation). The relative MIC was calculated for each experiment from the ratio of MIC obtained for a given subculture to that obtained for first-time exposure.

E. coli ATCC 35218 = assay: microbe, parasite or virus in culture; assay type: cell-based; details: for MIC: Escherichia coli
Procedure: as §2

E. coli AG100B = assay: MIC, double-microdilution, E. coli AG100B; assay type: cell-based, Escherichia coli; details: for MIC: Escherichia coli, AG100B
Description: AG100B and AG100A are two kanamycin resistant Escherichia coli strains expressing APH(3′)-I aminoglycoside resistance enzyme.

E. coli R477-100 = assay: MIC, double-microdilution, E. coli R477-100; assay type: cell-based, Escherichia coli; details: for MIC: Escherichia coli
E. coli XL1 blue = assay: microbe, parasite or virus in culture; assay type: cell-based; details: background strain
Procedure: (§3) For this purpose, exemplary conjugates, according to some embodiments of the present invention, were tested against five isogenic E. coli strains. E. coli (pSF815) and E. coli (pET9d) are laboratory resistant strains derived by transformation of E. coli XL1 blue (background strain) with the pSF815 and pET9d plasmids, respectively. […] The last two isogenic strains used were E. coli BL21 (background strain) and E. coli (pETSACG1). […] These three enzymes are among the most prevalent modes of resistance found in aminoglycosides resistance strains.
(§4) The MIC ratios were calculated by dividing the MIC value against resistant strain to that against the respective background strain.

E. coli XL1 blue/pET9d = assay: microbe, parasite or virus in culture; assay type: cell-based; details: for MIC ratio XL1 blue/pET9d to XL1 blue: MIC resistant strain divided by MIC background strain
Procedure: as §3, §4

E. coli BL21/pETSACG1 = assay: microbe, parasite or virus in culture; assay type: cell-based; details: for MIC ratio BL21/pETSACG1 to BL21: MIC resistant strain divided by MIC background strain
Procedure: as §3, §4

E. coli BL21 = assay: microbe, parasite or virus in culture; assay type: cell-based; details: background strain
Procedure: as §3, §4

E. coli XL1 blue/pSF815 = assay: microbe, parasite or virus in culture; assay type: cell-based
Procedure: as §3, §4

MRSA ATCC 43300 = assay: microbe, parasite or virus in culture; assay type: cell-based, S. aureus; details: for MIC: Staphylococcus aureus, read-out: MIC MRSA ATCC 43300
[4] = Table 4, read-out: MIC B. subtilis ATCC 6633
[5] = relaxation assay, supercoiled pBR322
[6] = Table 4, read-out: MIC E. coli ATCC 25922
[7] = ATCC6633, read-out: MIC 15th passage, B.subtilis ATCC 6633
[8] = MIC of subculture to MIC upon first exposure
[9] = ATCC35218, read-out: MIC 15th passage, E.coli ATCC 35218
[10] = read-out: MIC E. coli AG100B, Table 4, kanamycin resistant, APH(3′)-I
[11] = R477100, read-out: MIC E. coli R477-100
[12] = Table 4, kanamycin resistant, APH(3′)-I

E. coli DNA gyrase, sequence (P0AES4 whole entry, one chain of several): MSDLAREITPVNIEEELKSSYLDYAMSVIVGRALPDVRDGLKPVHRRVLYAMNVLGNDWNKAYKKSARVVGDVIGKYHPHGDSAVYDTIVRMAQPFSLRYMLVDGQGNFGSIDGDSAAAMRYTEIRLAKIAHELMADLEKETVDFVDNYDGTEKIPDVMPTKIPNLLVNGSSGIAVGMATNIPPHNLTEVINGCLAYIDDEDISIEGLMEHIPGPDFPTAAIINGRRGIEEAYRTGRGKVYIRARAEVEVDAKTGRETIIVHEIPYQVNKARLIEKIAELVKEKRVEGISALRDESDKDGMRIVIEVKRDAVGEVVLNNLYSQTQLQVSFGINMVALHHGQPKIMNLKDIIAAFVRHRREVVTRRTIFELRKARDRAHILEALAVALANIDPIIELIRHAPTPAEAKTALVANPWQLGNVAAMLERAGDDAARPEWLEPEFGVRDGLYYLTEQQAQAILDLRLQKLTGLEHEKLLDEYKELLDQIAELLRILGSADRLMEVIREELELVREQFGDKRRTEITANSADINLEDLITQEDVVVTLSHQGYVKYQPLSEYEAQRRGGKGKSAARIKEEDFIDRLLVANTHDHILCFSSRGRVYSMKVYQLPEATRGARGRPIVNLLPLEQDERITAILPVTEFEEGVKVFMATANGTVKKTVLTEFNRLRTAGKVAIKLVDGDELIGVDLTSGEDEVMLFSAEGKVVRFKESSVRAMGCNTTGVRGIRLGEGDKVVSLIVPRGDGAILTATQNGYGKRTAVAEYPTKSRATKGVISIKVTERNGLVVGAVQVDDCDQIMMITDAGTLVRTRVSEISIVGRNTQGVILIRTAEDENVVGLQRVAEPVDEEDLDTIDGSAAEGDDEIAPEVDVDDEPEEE
T2 sequence (P0AFI2 whole entry): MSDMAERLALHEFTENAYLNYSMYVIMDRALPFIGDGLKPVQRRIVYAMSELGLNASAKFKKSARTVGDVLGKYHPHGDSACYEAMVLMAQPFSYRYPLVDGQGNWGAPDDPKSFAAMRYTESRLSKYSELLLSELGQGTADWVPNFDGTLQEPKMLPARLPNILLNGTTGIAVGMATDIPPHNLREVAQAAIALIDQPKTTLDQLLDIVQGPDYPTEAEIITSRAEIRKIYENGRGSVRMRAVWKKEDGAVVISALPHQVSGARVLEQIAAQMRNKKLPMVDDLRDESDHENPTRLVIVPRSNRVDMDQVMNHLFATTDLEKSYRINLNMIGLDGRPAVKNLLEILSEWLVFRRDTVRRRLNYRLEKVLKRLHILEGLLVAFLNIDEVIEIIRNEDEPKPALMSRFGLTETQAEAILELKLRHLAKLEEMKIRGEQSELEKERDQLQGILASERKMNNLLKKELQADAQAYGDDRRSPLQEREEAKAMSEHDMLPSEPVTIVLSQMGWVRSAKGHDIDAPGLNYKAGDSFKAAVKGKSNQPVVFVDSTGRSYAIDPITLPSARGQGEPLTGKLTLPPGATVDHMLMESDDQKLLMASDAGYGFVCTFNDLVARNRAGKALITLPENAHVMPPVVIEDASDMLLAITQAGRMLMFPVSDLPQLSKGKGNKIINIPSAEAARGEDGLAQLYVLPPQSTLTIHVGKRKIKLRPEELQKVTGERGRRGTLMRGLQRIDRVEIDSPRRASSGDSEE
T2 sequence (P20083 whole entry): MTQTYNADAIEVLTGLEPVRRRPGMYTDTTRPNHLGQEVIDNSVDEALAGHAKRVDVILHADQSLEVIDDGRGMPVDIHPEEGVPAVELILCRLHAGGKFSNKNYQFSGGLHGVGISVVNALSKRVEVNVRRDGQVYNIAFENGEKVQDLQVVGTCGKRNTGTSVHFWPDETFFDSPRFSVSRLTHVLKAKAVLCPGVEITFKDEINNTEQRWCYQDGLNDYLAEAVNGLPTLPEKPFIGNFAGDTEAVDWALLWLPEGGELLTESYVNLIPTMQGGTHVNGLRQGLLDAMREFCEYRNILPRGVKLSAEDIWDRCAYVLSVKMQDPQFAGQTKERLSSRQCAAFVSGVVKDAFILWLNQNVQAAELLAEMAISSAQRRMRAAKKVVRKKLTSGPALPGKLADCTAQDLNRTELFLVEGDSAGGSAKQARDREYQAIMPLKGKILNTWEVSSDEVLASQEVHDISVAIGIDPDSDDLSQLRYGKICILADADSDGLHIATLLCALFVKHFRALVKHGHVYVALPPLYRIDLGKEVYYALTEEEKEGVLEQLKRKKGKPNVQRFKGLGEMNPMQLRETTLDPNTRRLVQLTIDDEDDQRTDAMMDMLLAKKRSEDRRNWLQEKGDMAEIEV
T1 sequence (P0A3Y5 whole entry): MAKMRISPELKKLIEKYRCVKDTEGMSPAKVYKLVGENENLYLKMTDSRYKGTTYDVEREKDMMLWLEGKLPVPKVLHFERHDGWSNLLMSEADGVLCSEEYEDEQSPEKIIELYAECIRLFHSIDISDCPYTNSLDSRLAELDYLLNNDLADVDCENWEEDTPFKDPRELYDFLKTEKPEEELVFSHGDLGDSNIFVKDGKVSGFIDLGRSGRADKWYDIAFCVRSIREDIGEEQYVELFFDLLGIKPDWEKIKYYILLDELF

NC[C@@H]1O[C@H](O[C@H]2[C@@H](O)[C@H](O[C@@H]3[C@@H](O)[C@H](N)C[C@H](N)[C@H]3O[C@H]3O[C@H](CN)[C@@H](O)[C@H](O)[C@H]3N)O[C@@H]2CO)[C@H](N)[C@@H](O)[C@@H]1O [NeoB, neomycin B, reference compound]
MIC (B. subtilis ATCC 6633 [1]; [4]): 1.5 µg/mL (≈ 2.44 µM) | kcat (APH(3′)-IIIa enzyme): 2.4 ± 0.1 s⁻¹ | IC50 [2]: 10.5 ± 0.1 µM | TopoIV IC50 (E. coli TopoIV; [5]): inactive | DNA gyrase IC50 (E. coli DNA gyrase; supercoiling assay, relaxed pBR322): inactive | MIC (E. coli AG100A; read-out: MIC E. coli AG100A, Table 4, kanamycin resistant, APH(3′)-I): 96 µg/mL (≈ 156 µM) | MIC (E. coli ATCC 25922; [6]): 48 µg/mL (≈ 78.1 µM) | MIC (B. subtilis ATCC 6633 [3]; ATCC6633, read-out: MIC 1st passage, B.subtilis ATCC 6633): 0.75 µg/mL (≈ 1.22 µM) | MIC (B. subtilis ATCC 6633 [3]; [7]): 6 µg/mL (≈ 9.76 µM) | Ratio (relative MIC) 15th/1st passage, B.subtilis ATCC 6633 (B. subtilis ATCC 6633 [3]; [8]): 8 | MIC (E. coli ATCC 35218; ATCC35218, read-out: MIC 1st passage, E.coli ATCC 35218): 12 µg/mL (≈ 19.5 µM) | MIC (E. coli ATCC 35218; [9]): 48 µg/mL (≈ 78.1 µM) | Ratio (relative MIC) 15th/1st passage, E.coli ATCC 35218 (E. coli ATCC 35218; [8]): 4 | MIC (E. coli AG100B; [10]): 384 µg/mL (≈ 625 µM) | MIC (E. coli R477-100; [11]): 24 µg/mL (≈ 39 µM) | MIC (E. coli XL1 blue; Escherichia coli, XL1BLUE, read-out: MIC XL1 blue): 6 µg/mL (≈ 9.76 µM) | MIC (E. coli XL1 blue/pET9d; Escherichia coli, XL1BLUE/PET9D, read-out: MIC XL1 blue/pET9d): 96 µg/mL (≈ 156 µM) | MIC ratio XL1 blue/pET9d to XL1 blue (E. coli XL1 blue/pET9d): 16 | MIC (E. coli BL21/pETSACG1; Escherichia coli, BL21/PETSACG1, read-out: MIC BL21/pETSACG1): 48 µg/mL (≈ 78.1 µM) | MIC ratio BL21/pETSACG1 to BL21 (E. coli BL21/pETSACG1): 8 | MIC (E. coli BL21; Escherichia coli, BL21): 6 µg/mL (≈ 9.76 µM) | MIC (E. coli XL1 blue/pSF815; Escherichia coli, XL1BLUE/PSF815, read-out: MIC XL1 blue/pSF815): > 384 µg/mL | MIC (MRSA ATCC 43300): 384 µg/mL (≈ 625 µM)

O=C(O)c1cn(C2CC2)c2cc(N3CCNCC3)c(F)cc2c1=O [Cipro, ciprofloxacin, reference compound]
MIC (B. subtilis ATCC 6633 [1]; [4]): 0.02 µg/mL (≈ 0.0604 µM) | MIC (B. subtilis ATCC 6633 [1]; Table 6, read-out: MIC Bacillus subtilis): 0.023 µg/mL (≈ 0.0694 µM) | Protein synthesis IC50 [2]: inactive | MIC (E. coli AG100A; read-out: MIC E. coli AG100A, Table 6): < 0.003 µg/mL | MIC (E. coli ATCC 25922; [6]): 0.02 µg/mL (≈ 0.0604 µM) | MIC (E. coli ATCC 25922; Table 6, read-out: MIC E. coli 25922): 0.023 µg/mL (≈ 0.0694 µM) | MIC (B. subtilis ATCC 6633 [3]; [7]): 0.75 µg/mL (≈ 2.26 µM) | MIC (E. coli ATCC 35218; [9]): 0.75 µg/mL (≈ 2.26 µM) | MIC (E. coli AG100B; [10]): 0.05 µg/mL (≈ 0.151 µM) | MIC (E. coli AG100B; read-out: MIC E. coli AG100B, Table 6): 0.06 µg/mL (≈ 0.181 µM) | MIC (E. coli R477-100; R477100, read-out: MIC E. Coli R477-100): 0.023 µg/mL (≈ 0.0694 µM) | MIC (E. coli R477-100; [11]): 0.02 µg/mL (≈ 0.0604 µM) | MIC (MRSA ATCC 43300; Table 4): 0.2 µg/mL (≈ 0.604 µM) | MIC MRSA ATCC 43300 (MRSA ATCC 43300; Table 4): 0.20 µg/mL (≈ 0.604 µM)

NCC1OC(OC2C(COCc3cn(CCN4CCN(c5cc6c(cc5F)c(=O)c(C(=O)O)cn6C5CC5)CC4)nn3)OC(OC3C(O)C(N)CC(N)C3OC3OC(CN)C(O)C(O)C3N)C2O)C(N)C(O)C1O (stereo not shown) [Compound 1q, 4-((5″-neomycinmethoxy)methyl)-1-(2-(ciprofloxacin)ethyl)-1H-1,2,3-triazole]
MIC B. subtilis ATCC 6633 (B. subtilis ATCC 6633 [1]; Table 4): 0.75 µg/mL (≈ 0.712 µM) | IC50 [2]: 18.1 ± 4.9 µM | IC50 fold superior than Cipro in TopoIV assay (E. coli TopoIV): 1.4 fold | IC50 (E. coli TopoIV; [5]): 7.9 ± 0.25 µM | IC50 fold superior than that of Cipro in DNA gyrase assay (E. coli DNA gyrase; general statements name DNA gyrase and TopoIV together): 32 fold | IC50 (E. coli DNA gyrase; read-out: DNA gyrase IC50, supercoiling assay, relaxed pBR322): 0.041 ± 0.009 µM | MIC E. coli AG100A (E. coli AG100A; [12]): 0.38 µg/mL (≈ 0.361 µM) | fold more potent than NeoB against E. coli AG100A (E. coli AG100A; from MIC): 253 fold | MIC E. coli ATCC 25922 (E. coli ATCC 25922; Table 4): 3 µg/mL (≈ 2.85 µM) | MIC E. coli AG100B (E. coli AG100B; [12]): 12 µg/mL (≈ 11.4 µM) | fold more potent than NeoB against E. coli AG100B (E. coli AG100B; from MIC): 32 fold | MIC E. coli R477-100 (E. coli R477-100; Table 4): 3 µg/mL (≈ 2.85 µM) | MIC XL1 blue (E. coli XL1 blue): 3 µg/mL (≈ 2.85 µM) | MIC ratio XL1 blue/pET9d to XL1 blue (E. coli XL1 blue/pET9d): 4 | MIC XL1 blue/pET9d (E. coli XL1 blue/pET9d; expressed enzyme APH(3′)-Ia): 12 μg/ml | MIC ratio BL21/pETSACG1 to BL21 (E. coli BL21/pETSACG1): 1 | MIC BL21/pETSACG1 (E. coli BL21/pETSACG1; expressed enzyme APH(3′)-IIIa): 0.2 μg/ml | MIC BL21 (E. coli BL21): 0.2 µg/mL (≈ 0.19 µM) | MIC ratio XL1 blue/pSF815 to XL1 blue (E. coli XL1 blue/pSF815; MIC resistant strain divided by MIC background strain): 4 | MIC XL1 blue/pSF815 (E. coli XL1 blue/pSF815; expressed enzyme AAC(6′)-APH(2″)): 12 μg/ml | MIC MRSA ATCC 43300 (MRSA ATCC 43300; Table 4): 6 µg/mL (≈ 5.7 µM)
